US6087355A, “Cephalosporin antibiotics” (Microcide Pharmaceuticals, Inc., priority 1996, dated 2000)
Counter-ions that a name gives are not always drawn.

Legend:
[1] = test system: S. aureus strain ATCC 13709 (methicillin-susceptible); assay: Murine model for lethal bacteremic peritonitis; format: in vivo, female Swiss-Webster mice; settings: Staphylococcus aureus, ATCC13709, SC, 72 h
Method: Groups of 5 female Swiss-Webster mice (Simonsen, Gilroy, Calif.) each are challenged by the intraperitoneal (IP) route with tenfold increments of a bacterial inoculum. This permits calculation of the mean lethal dose (LD50) and the LD100. For preliminary evaluation of a new antibiotic, mice are challenged IP with an LD100 titer of bacteria. In two equal doses administered at the time of bacterial challenge and 2 hours later, groups of 10 mice each are treated subcutaneously with two-fold increments of the test drug and an antibiotic of known efficacy in mice and humans (i.e., positive control). Mice are observed for 72 h. Those alive at 72 h are considered long term survivors. The total drug dose in mg/kg that protects 50% of mice in a group from death is termed the mean protective dose (PD50). PD50 s are similarly determined for several pathogens. The quantitative endpoints for the new drug are then compared with those obtained with reference antibiotics.
Six ten-fold dilutions of inoculum suspended in 0.5 mL of sterilized 7% hog gastric mucin (Sigma) are injected IP in groups of 5 mice each. A control group of 5 mice receive mucin alone. Mice are observed for 72 h. Those alive at 72 h are considered long term survivors. The mean lethal dose (LD50) and 100% lethal dose (LD100) are determined by the probit test.
For antibiotic efficacy studies, mice are challenged IP with bacterial titers that will afford an LD100 for the test strain. In two equal doses administered at the time of bacterial challenge and 2 hours later, groups of 10 mice each are treated by the subcutaneous route (SC) with twofold increments of the test antibiotic; another group is treated similarly with a reference antibiotic of known efficacy in animals and man. Drug doses can range from 0.01 to 512 mg/kg. If the drug is poorly soluble, Tween 20 or propylene glycol will be employed to solubilize the drug. Animals are observed for 72 h. The 50% protective dose (PD50) is calculated in mg/kg by the probit method. The PD50 is the same as the 50% effective dose (ED50) and the 50% curative dose (CD50). Samples of blood from the hearts of all animals that die and from half the mice that survive are cultured on brain-heart infusion agar. Animals that received a protective dosage of the test drug will be alive at 72 h, although they may appear moderately ill to very ill during the observation period. […] Most of these mice will die within 6 to 48 h. Those alive at 72 h will be considered long term survivors.
(Compound numbers correspond to those in MIC tables; data reported for challenge with methicillin-susceptible S. aureus strain ATCC 13709.)

[2] = test system: S. aureus Col(Meth^R)(lac^-); assay: In vitro MIC, agar dilution; format: cell-based; settings: Staphylococcus aureus, read-out: minimum inhibitory concentration (MIC)
Method: (§1) The compounds of the invention were evaluated against several β-lactamresistant (for example methicillin-resistant, vancomycin resistant, and/or ampicillin-resistant) bacteria strains by determining the minimum inhibitory concentration (MIC, μg/ml) of each compound with respect to each strain. The MIC, the lowest concentration of antibiotic which inhibits growth of the test organism, was determined by the agar dilution method.
(§2) To determine the MIC for bacterial isolates, the test compound was incorporated in a series of two-fold dilutions into liquified Mueller-Hinton agar. Upon solidification, a number of different bacterial strains were spot inoculated with a replicating device onto the agar surface.
(§3) Aliquots of antimicrobial agents were prepared in phosphate buffered saline (PBS) at pH 7.2. Tween 20 or DMSO was used as a solubilizing vehicle as needed. Standard methods of vortexing, sonicating and gentle heat were used to facilitate solubilizing the test agent. […] A 1.28 mg/mL stock solution was used with a subsequent highest working concentration of 128 μg/mL. Serial two-fold dilutions were done through ≤0.25 μg/mL. Each drug level was tested in duplicate. Two-fold drug dilutions were done in sterile 50 mL tubes with a final drug volume of 5 mL. Upon the addition of 45 mL of molten agar, a 10-fold dilution resulted. Two, 25 mL. plates were then poured into 15×150 mm square Petri plates with grids and allowed to harden.
(§4) A control plate with a reference drug, either cefotaxime, vancomycin or imipenem, was used as the positive growth control. Stock concentrations of reference antibiotics were prepared and frozen at -80° C. […] All test plates were used within 24 hours of preparation.
(§5) Satisfactory results were obtained where the inoculum contained about 10^4 colony forming units (cfu)±0.5 logs. Starting with pure cultures of the test isolates on agar plates, a few isolated colonies were transferred to a tube of nutrient broth and allowed to grow 4-6 hours at 35-36° C. to reach log-phase growth. Dropwise addition of the broth culture to PBS was done to match a 0.5 McFarland turbidity standard equal to 10^8 cfu/mL. This was further diluted ten-fold in PBS to reach a working inoculum concentration of 10^7 cfu/mL. When 1 μL of the working inoculum was applied to the agar surface a concentration of about 10^4 cfu per spot was obtained.
(§6) Disposable sterile 1 μL loops were used to inoculate test plates, with each isolate in a designated grid on the agar plate. An alternate method of inoculation involved the use of a replica plater, a device with 48 steel pins allowing the simultaneous inoculation of multiple isolates. After the spots had dried, the plates were incubated at 35-36° C. for 16-20 hours. Endpoints were assessed as the minimum inhibitory concentration (MIC) of antimicrobial agent.
The S. aureus Col strain is a high-level PBP2a producer, whereas S. aureus Col 8A, its isogenic partner, lacks PBP2a.

[3] = test system: S. aureus Spain #356(Meth^R); assay: In vitro MIC, agar dilution; format: cell-based; settings: Staphylococcus aureus, read-out: minimum inhibitory concentration (MIC)
Method: as §1, §2, §3, §4, §5, §6

[4] = test system: S. aureus PC1(Meth^S)(lac^+); assay: In vitro MIC, agar dilution; format: cell-based; settings: Staphylococcus aureus, read-out: minimum inhibitory concentration (MIC)
Method: as §1, §2, §3, §4, §5, §6

[5] = test system: E. faecalis ATCC 29212; assay: In vitro MIC, agar dilution; format: cell-based; settings: Enterococcus faecalis, ATCC29212, read-out: minimum inhibitory concentration (MIC)
Method: as §1, §2, §3, §4, §5, §6

[6] = test system: E. faecalis VanB(Van^R); assay: In vitro MIC, agar dilution; format: cell-based; settings: Enterococcus faecalis, read-out: minimum inhibitory concentration (MIC)
Method: as §1, §2, §3, §4, §5, §6

[7] = test system: S. aureus 76(Meth^R)(lac^+); assay: In vitro MIC, agar dilution; format: cell-based; settings: Staphylococcus aureus, read-out: minimum inhibitory concentration (MIC)
Method: as §1, §2, §3, §4, §5, §6

[8] = test system: E. faecium A491(Amp^R); assay: In vitro MIC, agar dilution; format: cell-based; settings: Enterococcus faecium, read-out: minimum inhibitory concentration (MIC)
Method: as §1, §2, §3, §4, §5, §6

[9] = test system: S. aureus ATCC 33593(Meth^R); assay: In vitro MIC, agar dilution; format: cell-based; settings: Staphylococcus aureus, ATCC33593, read-out: minimum inhibitory concentration (MIC)
Method: as §1, §2, §3, §4, §5, §6

[10] = test system: S. aureus ATCC 29213; assay: In vitro MIC, agar dilution; format: cell-based; settings: Staphylococcus aureus, ATCC29213, read-out: minimum inhibitory concentration (MIC)
Method: as §1, §2, §3, §4, §5, §6

[11] = test system: S. haemolyticus 05(Meth^R); assay: In vitro MIC, agar dilution; format: cell-based; settings: Staphylococcus haemolyticus, read-out: minimum inhibitory concentration (MIC)
Method: as §1, §2, §3, §4, §5, §6

[12] = test system: E. faecium VanA(Van^R); assay: In vitro MIC, agar dilution; format: cell-based; settings: Enterococcus faecium, read-out: minimum inhibitory concentration (MIC)
Method: as §1, §2, §3, §4, §5, §6

[13] = test system: S. aureus ATCC 13709(Meth^S); assay: In vitro MIC, agar dilution; format: cell-based; settings: Staphylococcus aureus, ATCC13709, S. aureus ATCC 13709(Meth^S); read-out: minimum inhibitory concentration (MIC)
Method: as §1, §2, §3, §4, §5, §6

[14] = test system: E. faecium ATCC 35667; assay: In vitro MIC, agar dilution; format: cell-based; settings: Enterococcus faecium, ATCC35667, read-out: minimum inhibitory concentration (MIC)
Method: as §1, §2, §3, §4, §5, §6

[15] = test system: E. coli ATCC 25992; assay: In vitro MIC, agar dilution; format: cell-based; settings: Escherichia coli, ATCC25992, read-out: minimum inhibitory concentration (MIC)
Method: as §1, §2, §3, §4, §5, §6

[16] = test system: P. aeruginosa ATCC 27853; assay: In vitro MIC, agar dilution; format: cell-based; settings: Pseudomonas aeruginosa, ATCC27853, read-out: minimum inhibitory concentration (MIC)
Method: as §1, §2, §3, §4, §5, §6

NCCSCc1cnccc1SC1=C(C(=O)O)N2C(=O)[C@@H](NC(=O)/C(=N\O)c3ccccc3)[C@H]2SC1.O=C(O)C(F)(F)F [Cmpd 26, (7R)-7-[(Z)-2-phenyl-2-(hydroxyimino)acetamido]-3-(3-aminoethylthiomethylpyrid-4-ylthio)-3-cephem-4-carboxylate, trifluoroacetic acid salt]
responders at 0.3125 mg/kg ([1]; Dose 0.3125 mg/kg, read-out: Survivors): 10% | responders at 0.625 mg/kg ([1]; Dose 0.625 mg/kg, read-out: Survivors): 50% | responders at 1.25 mg/kg ([1]; Dose 1.25 mg/kg, read-out: Survivors (converted)): 50% | responders at 2.5 mg/kg ([1]; Dose 2.5 mg/kg, read-out: Survivors): 70% | responders at 5 mg/kg ([1]; Dose 5 mg/kg, read-out: Survivors): 90% | ED50 ([1]; two equal doses, IP challenge, read-out: ED50): 1.06 mg/kg | MIC [2]: 0.5 mg/L | MIC [3]: 1 mg/L | MIC [4]: 0.13 mg/L | MIC [5]: ≤ 0.06 mg/L | MIC [6]: 0.13 mg/L | MIC [7]: 1 mg/L | MIC [8]: 8 mg/L | MIC [9]: 1 mg/L | MIC [10]: 0.13 mg/L | MIC [11]: 2 mg/L | MIC [12]: 0.5 mg/L | MIC [13]: ≤ 0.06 mg/L | MIC [14]: 0.25 mg/L | MIC [15]: > 32 mg/L | MIC [16]: > 32 mg/L

CC(N)COCc1cnccc1SC1=C(C(=O)O)N2C(=O)[C@@H](NC(=O)/C(=N\O)c3nc(N)sc3Cl)[C@H]2SC1 (stereo partly drawn) [Cmpd 49, (7R)-7-[(Z)-2-(2-amino-5-chlorothiazol-4-yl)-2-(hydroxyimino)acetamido]-3-(3-(2-aminopropyloxymethyl)pyrid-4-ylthio)-3-cephem-4-carboxylate, trifluoroacetic acid salt]
MIC [2]: 2 mg/L | MIC [3]: 2 mg/L | MIC [4]: 0.5 mg/L | MIC [5]: 0.13 mg/L | MIC [6]: 0.13 mg/L | MIC [7]: 2 mg/L | MIC [8]: 16 mg/L | MIC [9]: 2 mg/L | MIC [10]: 0.25 mg/L | MIC [11]: 4 mg/L | MIC [12]: 2 mg/L | MIC [13]: 0.25 mg/L | MIC [14]: 1 mg/L | MIC [15]: 8 mg/L | MIC [16]: > 32 mg/L

N=C(N)SCc1cnccc1SC1=C(C(=O)O)N2C(=O)[C@@H](NC(=O)/C(=N\O)c3nc(N)sc3Cl)[C@H]2SC1 [Cmpd 60, (7R)-7-[(Z)-2-(2-amino-5-chlorothiazol-4-yl)-2-(hydroxyimino)acetamido]-3-(3-isothioureidomethylpyrid-4-ylthio)-3-cephem-4-carboxylate, trifluoroacetic acid salt]
MIC [2]: 2 mg/L | MIC [3]: 2 mg/L | MIC [4]: 0.25 mg/L | MIC [5]: 0.5 mg/L | MIC [6]: 0.25 mg/L | MIC [7]: 1 mg/L | MIC [8]: 16 mg/L | MIC [9]: 2 mg/L | MIC [10]: 0.25 mg/L | MIC [11]: 4 mg/L | MIC [12]: 2 mg/L | MIC [13]: 0.13 mg/L | MIC [14]: 1 mg/L | MIC [15]: 8 mg/L | MIC [16]: > 32 mg/L

CC(N)CSCc1cnccc1SC1=C(C(=O)O)N2C(=O)[C@@H](NC(=O)/C(=N\O)c3nc(N)sc3Cl)[C@H]2SC1 (stereo partly drawn) [Cmpd 36, (7R)-7-[(Z)-2-(2-amino-5-chlorothiazol-4-yl)-2-(hydroxyimino)acetamido]-3-(3-(2-aminoprop-1-ylthiomethyl)pyrid-4-ylthio)-3-cephem-4-carboxylate, trifluoroacetic acid salt]
MIC [2]: 1 mg/L | MIC [3]: 1 mg/L | MIC [4]: 0.25 mg/L | MIC [5]: 0.25 mg/L | MIC [6]: 0.13 mg/L | MIC [7]: 2 mg/L | MIC [8]: 8 mg/L | MIC [9]: 1 mg/L | MIC [10]: 0.5 mg/L | MIC [11]: 2 mg/L | MIC [12]: 1 mg/L | MIC [13]: 0.25 mg/L | MIC [14]: 0.5 mg/L | MIC [15]: 16 mg/L | MIC [16]: > 32 mg/L

CNCCSCc1cnccc1SC1=C(C(=O)O)N2C(=O)[C@@H](NC(=O)/C(=N\O)c3nc(N)sc3Cl)[C@H]2SC1 [Cmpd 41, (7R)-7-[(Z)-2-(2-amino-5-chlorothiazol-4-yl)-2-(hydroxyimino)acetamido]-3-(3-(2-N-methylaminoethylthiomethyl)pyrid-4-ylthio)-3-cephem-4-carboxylate, trifluoroacetic acid salt]
MIC [2]: 1 mg/L | MIC [3]: 1 mg/L | MIC [4]: 0.25 mg/L | MIC [5]: ≤ 0.06 mg/L | MIC [6]: ≤ 0.06 mg/L | MIC [7]: 1 mg/L | MIC [8]: 8 mg/L | MIC [9]: 1 mg/L | MIC [10]: 0.13 mg/L | MIC [11]: 1 mg/L | MIC [12]: 1 mg/L | MIC [13]: 0.13 mg/L | MIC [14]: 0.25 mg/L | MIC [15]: 4 mg/L | MIC [16]: 32 mg/L
